Experimental data: ChEMBL document CHEMBL1146830, “Synthesis and biological evaluation of nonpeptide integrin antagonists containing spirocyclic scaffolds” (Bioorg Med Chem Lett, 2004)

What was measured:
[1] = target: Integrin alpha-5/beta-1 (Homo sapiens, UniProt P05556+P08648); assay: Alpha-5 beta-1 antagonism using an ELISA assay; type: functional
[2] = target: Integrin alpha-V/beta-3 (Homo sapiens); assay: Evaluated in an functional alpha-v beta-3 antagonism assay, involving adhesion of beta-3-transfected 293 cells to fibrinogen (alpha-v beta-3 293 beta3)
[3] = target: Integrin alpha-V/beta-3 and alpha-IIb/beta 3 (Homo sapiens, UniProt P05106+P06756+P08514); assay: Inhibition of platelet aggregation in human platelet-rich plasma alpha IIb beta-3 integrin to assess the selectivity for the alpha-v beta-3 over the GPIIb/IIIa integrin receptor

Chain of Integrin alpha-5/beta-1 (P05556 21-798 limits assumed): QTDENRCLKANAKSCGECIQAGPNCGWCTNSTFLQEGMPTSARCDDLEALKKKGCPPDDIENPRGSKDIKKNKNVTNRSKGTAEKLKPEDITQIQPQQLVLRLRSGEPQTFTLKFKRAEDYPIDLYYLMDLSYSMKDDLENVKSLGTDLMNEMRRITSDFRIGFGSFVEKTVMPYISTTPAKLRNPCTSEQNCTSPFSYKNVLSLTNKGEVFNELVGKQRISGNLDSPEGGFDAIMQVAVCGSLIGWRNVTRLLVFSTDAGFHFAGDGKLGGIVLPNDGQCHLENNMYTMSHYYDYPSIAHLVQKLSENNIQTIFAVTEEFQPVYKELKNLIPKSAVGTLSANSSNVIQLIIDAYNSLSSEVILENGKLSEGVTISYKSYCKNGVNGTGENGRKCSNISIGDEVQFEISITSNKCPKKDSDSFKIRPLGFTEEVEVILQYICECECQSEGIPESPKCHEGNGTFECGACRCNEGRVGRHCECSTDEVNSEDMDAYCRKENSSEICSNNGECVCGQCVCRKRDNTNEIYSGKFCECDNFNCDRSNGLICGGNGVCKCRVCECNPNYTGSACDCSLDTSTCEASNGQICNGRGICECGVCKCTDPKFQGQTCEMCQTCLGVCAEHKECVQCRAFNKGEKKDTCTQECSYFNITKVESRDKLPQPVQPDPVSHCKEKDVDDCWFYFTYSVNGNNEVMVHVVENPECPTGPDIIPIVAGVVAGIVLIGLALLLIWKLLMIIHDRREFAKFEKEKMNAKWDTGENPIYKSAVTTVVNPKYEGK
Chain of Integrin alpha-5/beta-1 (P08648 42-894 limits assumed): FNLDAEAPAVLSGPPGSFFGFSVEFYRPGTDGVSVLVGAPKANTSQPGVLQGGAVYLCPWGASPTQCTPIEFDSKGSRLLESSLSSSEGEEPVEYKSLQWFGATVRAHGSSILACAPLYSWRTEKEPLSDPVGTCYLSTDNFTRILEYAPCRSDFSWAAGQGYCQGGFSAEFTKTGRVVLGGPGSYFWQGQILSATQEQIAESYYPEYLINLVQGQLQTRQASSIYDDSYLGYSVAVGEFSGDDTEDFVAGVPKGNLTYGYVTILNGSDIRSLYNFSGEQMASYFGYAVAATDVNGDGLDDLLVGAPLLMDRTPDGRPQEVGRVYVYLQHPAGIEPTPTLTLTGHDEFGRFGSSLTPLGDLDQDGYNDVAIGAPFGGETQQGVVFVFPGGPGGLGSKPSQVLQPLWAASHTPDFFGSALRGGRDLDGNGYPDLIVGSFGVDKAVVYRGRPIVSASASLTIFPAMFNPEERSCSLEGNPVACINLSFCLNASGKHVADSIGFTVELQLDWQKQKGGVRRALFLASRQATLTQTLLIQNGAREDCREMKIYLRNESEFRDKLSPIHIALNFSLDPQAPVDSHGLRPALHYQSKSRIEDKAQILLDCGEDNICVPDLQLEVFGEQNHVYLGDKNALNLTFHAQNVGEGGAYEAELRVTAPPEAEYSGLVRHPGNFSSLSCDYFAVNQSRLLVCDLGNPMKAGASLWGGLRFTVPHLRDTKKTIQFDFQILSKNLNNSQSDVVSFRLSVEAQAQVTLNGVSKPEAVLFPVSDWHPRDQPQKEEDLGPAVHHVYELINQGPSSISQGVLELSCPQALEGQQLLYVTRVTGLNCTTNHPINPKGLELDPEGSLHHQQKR
Chain of Integrin alpha-5/beta-1 (P08648 895-1049 limits assumed): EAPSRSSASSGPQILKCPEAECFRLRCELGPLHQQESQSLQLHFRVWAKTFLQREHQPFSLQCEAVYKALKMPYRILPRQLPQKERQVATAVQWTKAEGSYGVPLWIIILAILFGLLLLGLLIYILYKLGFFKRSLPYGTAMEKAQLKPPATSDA

CCCCOC(=O)N1C[C@@]2(CC(C(=O)NC[C@H](NS(=O)(=O)c3c(C)cc(C)cc3C)C(=O)O)=NO2)C[C@H]1CNc1nc2ccccc2[nH]1
IC50 [1]: 0.39 nM
IC50 [2]: 87 nM

Cc1cc(C)c(S(=O)(=O)N[C@@H](CNC(=O)C2=NO[C@]3(C2)C[C@@H](CNC2=NCCN2)N(C(=O)OCc2ccccc2)C3)C(=O)O)c(C)c1
IC50 [3]: 7300 nM
IC50 [1]: 13 nM

Cc1cc(C)c(S(=O)(=O)N[C@@H](CNC(=O)C2=NO[C@]3(CN[C@H](CNc4ncc[nH]4)C3)C2)C(=O)O)c(C)c1
IC50 [3]: 1400 nM
IC50 [1]: 230 nM
IC50 [2]: 180 nM

CCCCOC(=O)N1C[C@@]2(CC(C(=O)NC[C@H](NS(=O)(=O)c3c(C)cc(C)cc3C)C(=O)O)=NO2)C[C@H]1CNc1ncc[nH]1
IC50 [3]: 11000 nM
IC50 [1]: 14 nM
IC50 [2]: 130 nM

Cc1cc(C)c(S(=O)(=O)N[C@@H](CNC(=O)C2=NO[C@@]3(C2)C[C@@H](CNC2=NCCN2)N(C(=O)OCc2ccccc2)C3)C(=O)O)c(C)c1
IC50 [3]: 9200 nM
IC50 [1]: 1200 nM

Cc1cc(C)c(S(=O)(=O)N[C@@H](CNC(=O)C2=NO[C@]3(C2)C[C@@H](CNc2ccccn2)N(C(=O)OCc2ccccc2)C3)C(=O)O)c(C)c1
IC50 [3]: > 100000 nM
IC50 [1]: 0.18 nM
IC50 [2]: 49 nM

Cc1cc(C)c(S(=O)(=O)N[C@@H](CNC(=O)C2=NO[C@]3(C2)C[C@@H](CNc2nc4ccccc4[nH]2)N(C(=O)OCc2ccccc2)C3)C(=O)O)c(C)c1
IC50 [3]: > 100000 nM
IC50 [2]: 74 nM

Cc1cc(C)c(S(=O)(=O)N[C@@H](CNC(=O)C2=NO[C@]3(C2)C[C@@H](CNc2ncc[nH]2)N(C(=O)OCc2ccccc2)C3)C(=O)O)c(C)c1
IC50 [3]: 34000 nM
IC50 [1]: 18 nM
IC50 [2]: 41 nM

Cc1cc(C)c(S(=O)(=O)N[C@@H](CNC(=O)C2=NO[C@]3(C2)C[C@@H](CNc2ncc[nH]2)N(C(=O)OCc2cccnc2)C3)C(=O)O)c(C)c1
IC50 [3]: 5600 nM
IC50 [1]: 39 nM
IC50 [2]: 32 nM

COC(=O)N1C[C@@]2(CC(C(=O)NC[C@H](NS(=O)(=O)c3c(C)cc(C)cc3C)C(=O)O)=NO2)C[C@H]1CNc1ncc[nH]1
IC50 [3]: 7300 nM
IC50 [1]: 21 nM
IC50 [2]: 57 nM

COC(=O)N1C[C@@]2(CC(C(=O)NC[C@H](NS(=O)(=O)c3c(C)cc(C)cc3C)C(=O)O)=NO2)C[C@H]1CNc1nc2ccccc2[nH]1
IC50 [3]: > 100000 nM
IC50 [1]: 1.4 nM
IC50 [2]: 34 nM
